How the values were obtained:
Assay in all cases: reduction to DABS-Met, […] min
Type in all cases: biochemical
Conditions in all cases: no activator
[1] = molecular target: T1, eMsrB (Escherichia coli, UniProt P0A746)
T1 sequence (P0A746 2-137): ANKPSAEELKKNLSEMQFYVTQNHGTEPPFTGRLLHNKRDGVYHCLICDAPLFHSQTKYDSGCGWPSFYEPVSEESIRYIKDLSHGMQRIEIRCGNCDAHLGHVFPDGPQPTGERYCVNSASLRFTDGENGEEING

[2] = molecular target: hMsrB2 (Homo sapiens, UniProt Q9Y3D2)
[3] = molecular target: T2, hMsrB3 (Homo sapiens, UniProt Q8IXL7)
T2 sequence (Q8IXL7 1-192 limits assumed): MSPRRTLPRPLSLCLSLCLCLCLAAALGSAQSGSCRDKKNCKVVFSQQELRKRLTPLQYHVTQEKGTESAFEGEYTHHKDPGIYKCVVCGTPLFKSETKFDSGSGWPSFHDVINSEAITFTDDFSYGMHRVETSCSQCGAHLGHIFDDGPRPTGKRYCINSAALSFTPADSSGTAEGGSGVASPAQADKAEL

[4] = molecular target: T3, bMsrA (Bos taurus, UniProt P54149)
T3 sequence (P54149 1-233 limits assumed): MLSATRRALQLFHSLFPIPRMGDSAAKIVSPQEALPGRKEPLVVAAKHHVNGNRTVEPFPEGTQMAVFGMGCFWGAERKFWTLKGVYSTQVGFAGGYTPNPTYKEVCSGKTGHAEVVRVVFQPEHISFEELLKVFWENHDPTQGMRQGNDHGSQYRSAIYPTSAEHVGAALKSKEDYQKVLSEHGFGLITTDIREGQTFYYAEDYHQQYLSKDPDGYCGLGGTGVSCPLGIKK

[5] = molecular target: T4, hMsrA (myristoylated) (Homo sapiens, UniProt Q9UJ68)
T4 sequence (Q9UJ68 23-235): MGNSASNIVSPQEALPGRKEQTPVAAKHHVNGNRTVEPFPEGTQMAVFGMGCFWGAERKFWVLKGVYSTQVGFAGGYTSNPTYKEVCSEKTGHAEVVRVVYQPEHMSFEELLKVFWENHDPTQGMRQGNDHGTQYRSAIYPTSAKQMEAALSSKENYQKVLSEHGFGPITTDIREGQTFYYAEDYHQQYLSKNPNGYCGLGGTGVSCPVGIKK

[6] = molecular target: T5, hMsrA (Homo sapiens, UniProt Q9UJ68)
T5 sequence (Q9UJ68 23-235): T4 sequence (Q9UJ68 23-235)

[7] = molecular target: T6, eMsrA (Escherichia coli, UniProt P0A744)
T6 sequence (P0A744 2-212): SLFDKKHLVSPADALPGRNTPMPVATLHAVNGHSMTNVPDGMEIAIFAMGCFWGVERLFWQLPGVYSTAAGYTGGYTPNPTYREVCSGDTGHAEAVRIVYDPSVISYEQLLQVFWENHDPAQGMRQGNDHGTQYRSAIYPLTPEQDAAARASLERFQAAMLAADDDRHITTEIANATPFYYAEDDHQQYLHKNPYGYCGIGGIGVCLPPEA

Chain of hMsrB2 (Q9Y3D2 whole entry): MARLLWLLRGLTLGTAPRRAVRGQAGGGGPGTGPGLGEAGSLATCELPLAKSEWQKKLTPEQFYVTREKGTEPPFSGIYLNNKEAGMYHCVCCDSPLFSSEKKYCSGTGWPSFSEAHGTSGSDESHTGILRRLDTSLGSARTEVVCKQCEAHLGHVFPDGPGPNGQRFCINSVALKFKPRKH

Row | SMILES | reduction to DABS-Met, 30 min [1] | reduction to DABS-Met, 30 min [2] | reduction to DABS-Met, 30 min [3] | reduction to DABS-Met, 30 min [4] | reduction to DABS-Met, 30 min [5] | reduction to DABS-Met, 30 min [6] | reduction to DABS-Met, 30 min [7]
1 | CN(C)c1ccc(N=Nc2ccc(S(=O)(=O)N[C@@H](CC[S@@+](C)[O-])C(=O)O)cc2)cc1 [DABS-Met-R-(o)] | either DABS-Met-S-(o) or DABS-Met-R-(o), to measure the activity of MsrA and MsrB, respectively | either DABS-Met-S-(o) or DABS-Met-R-(o), to measure the activity of MsrA and MsrB, respectively | either DABS-Met-S-(o) or DABS-Met-R-(o), to measure the activity of MsrA and MsrB, respectively | – | – | – | –
2 | CN(C)c1ccc(N=Nc2ccc(S(=O)(=O)N[C@@H](CC[S@+](C)[O-])C(=O)O)cc2)cc1 [DABS-Met-S-(o)] | – | – | – | uses a synthetic substrate, either DABS-Met-S-(o) or DABS-Met-R-(o), to measure the activity of MsrA | uses a synthetic substrate, either DABS-Met-S-(o) or DABS-Met-R-(o), to measure the activity of MsrA | uses a synthetic substrate, either DABS-Met-S-(o) or DABS-Met-R-(o), to measure the activity of MsrA | uses a synthetic substrate, either DABS-Met-S-(o) or DABS-Met-R-(o), to measure the activity of MsrA

Reference: publication PMC4724238 (Biochemical and biophysical research communications, 2015)
